The values that follow come from patent US7820665B2, “Imidazopyridazine inhibitors of PI3 kinase for cancer treatment” (Amgen Inc., priority 2007, dated 2010).

One test addresses T1, PI3Kα (Homo sapiens, UniProt P42336).
T1 construct: Full length p110 subunits of PI3K α, β and δ, N-terminally labeled with polyHis tag; polyHis (N); made in house; host or cells: Sf9 insect cells (baculovirus)
Description: In vitro PI3 kinase enzyme assay (PI3K ATPLoss). It is filed as biochemical. The note with it: recombinant p110α/p85, residual ATP by bioluminescence. Here is the method:
Full length p110 subunits of PI3K α, β and δ, N-terminally labeled with polyHis tag, can be co-expressed with p85 with Baculo virus expression vectors in sf9 insect cells. P110/p85 heterodimers can be purified by sequential Ni-NTA, Q-HP, Superdex-100 chromatography. Purified α, β and δ isozymes can be stored at −20° C. in 20 mM Tris, pH 8, 0.2M NaCl, 50% glycerol, 5 mM DTT, 2 mM Na cholate. Truncated PI3Kγ, residues 114-1102, N-terminally labeled with polyHis tag, can be expressed with Baculo virus in Hi5 insect cells. The γ isozyme can be purified by sequential Ni-NTA, Superdex-200, Q-HP chromatography. The γ isozyme can be stored frozen at −80° C. in NaH2PO4, pH 8, 0.2M NaCl, 1% ethylene glycol, 2 mM β-mercaptoethanol.
PI3K enzyme assays (alpha, beta, delta and gamma) can be performed in 25 μL with the above final concentrations of components in white polyproplyene plates. Phosphatidyl inositol phosphoacceptor, PtdIns(4,5)P2 (e.g. P4508) can be obtained from Echelon Biosciences, Salt Lake City, Utah. The ATPase activity of the alpha and gamma isozymes may not be greatly stimulated by PtdIns(4,5)P2 under these conditions, it can be omitted from the assay of these isozymes. Test compounds can be dissolved in DMSO and diluted with three-fold serial dilutions. The compound in DMSO (1 μL) may be added per test well, and the inhibition relative to reactions containing no compound, with and without enzyme can be determined. After assay incubation at RT, the reaction can be stopped and residual ATP can be determined by addition of an equal volume of a commercial ATP bioluminescence kit (Perkin Elmer EasyLite, Perkin Elmer, Waltham, Mass.) according to the manufacturer's instructions, and detected using an Analyst GT luminometer.

Test [1] has as its system phosphorylation of Akt at Serine 473 in U87 MG cells. Description: pAkt AlphaScreen (U87 Cell). The class given is cell-based. The note with it: Homo sapiens, U-87 MG, 2 h, 2 h compound, pAkt Ser473 AlphaScreen. Here is the method:
The pAkt AlphaScreen® assay (PerkinElmer, Waltham, Mass.) determines whether there is phosphorylation of Akt at Serine 473 by recruitment of a phosphospecific antibody. This assay was performed using U87 MG cells. The U87 growth media consists of MEM (Gibco, Carlsbad, Calif.) supplemented with 10% FBS (Gibco), 1× Non-Essential Amino Acids (Gibco) and 1× Penicillin/Streptomycin/Glutamine (Gibco). The cells were maintained weekly using 0.05% Trypsin (Gibco) and replated in 150 mm TC-Treated Culture Dishes (Corning, Corning, N.Y.).
The first day of the assay, the adherent cells were trypsinized, media was added to the loose cells and cells were mixed to a homogenous mixture. 0.5 ml of the homogenous mixture was counted on the Beckman Coulter® Vi-CELL™ XR (Fullerton, Calif.). 50 frames of cells were counted and the number of viable cells was determined. The cells were then diluted to 0.25 million cells per ml, and centrifuged at 200 rcf for 5 minutes. The media was removed and the cells were reconstituted in fresh media for plating. The cells were plated at 20 μl per well on the PerkinElmer® Flexprop PLUS in Low Volume 384 Well White Tissue Culture Plates (Corning) with a final cell density of 5K cells per well. The plates were incubated overnight at 37° Celsius, 5% CO2.
On the second day, the compound plates were prepared, the cells were treated with compound and the pAkt reaction mix was added to the cell lysate. 384 well compound plates were prepared containing 1 μl of compound per well starting at 5 mM and diluted 1:2 across the row, resulting in a 22 well serial dilution. 39 μl of growth media was added to the compound plate in rows 1-22 using the PerkinElmer® FlexDrop PLUS resulting in a DMSO concentration of 2.5%. The cell plates and diluted compound plates were put onto the VELOCITY11™ VPREP™ 384 ST where the compound plate was mixed and 5 μl of serially diluted compound or controls was added to the cell plate. The final concentration of the compounds was 25 μM serially diluted to 11.9 pM in 0.5% DMSO. The cell plates were then incubated with compound for two hours at 37° Celsius, 5% CO2. After two hours, the media in the cell plates was aspirated using the BioTek® ELx405HT plate washer (Winooski, Vt.) removing the majority of media and compound without disturbing the adherent U87 cells. The following assay reagents are components of the SureFire® Akt (Ser 473) Phosphorylation 50K Point Kit (TGR BioSciences, Adelaide, Australia) and an IgG Detection Kit (PerkinElmer, Waltham, Mass.). 5 μl of 1× Lysis Buffer was added to each well using the PerkinElmer® FlexDrop PLUS. The plates were then incubated at room temperature on a shaker for ten minutes. The AlphaScreen® reaction was prepared under low light conditions (subdued or green light) including p-Akt (Ser 473) Reaction Buffer, Dilution Buffer, Activation Buffer, Acceptor Beads and Donor Beads at a ratio of 40:20:10:1:1 respectively. The AlphaScreen® reaction was added to the cell lysate at 6 μl per well using the PerkinElmer® FlexDrop PLUS. The plates were placed in a humid environment to reduce edge effects and incubated overnight at room temperature with restricted air flow in the dark.
On the final day of the experiment, the plates were read on the PerkinElmer® EnVision™ 2103 Multilable Reader using the standard AlphaScreen® readout. The POC is calculated and the data is analyzed to report the IC50 IP for pAkt at Serine 473.
Background: In Alpha technology, singlet oxygen from a donor bead excites a nearby acceptor bead.

T1 sequence (P42336 whole entry, species assumed): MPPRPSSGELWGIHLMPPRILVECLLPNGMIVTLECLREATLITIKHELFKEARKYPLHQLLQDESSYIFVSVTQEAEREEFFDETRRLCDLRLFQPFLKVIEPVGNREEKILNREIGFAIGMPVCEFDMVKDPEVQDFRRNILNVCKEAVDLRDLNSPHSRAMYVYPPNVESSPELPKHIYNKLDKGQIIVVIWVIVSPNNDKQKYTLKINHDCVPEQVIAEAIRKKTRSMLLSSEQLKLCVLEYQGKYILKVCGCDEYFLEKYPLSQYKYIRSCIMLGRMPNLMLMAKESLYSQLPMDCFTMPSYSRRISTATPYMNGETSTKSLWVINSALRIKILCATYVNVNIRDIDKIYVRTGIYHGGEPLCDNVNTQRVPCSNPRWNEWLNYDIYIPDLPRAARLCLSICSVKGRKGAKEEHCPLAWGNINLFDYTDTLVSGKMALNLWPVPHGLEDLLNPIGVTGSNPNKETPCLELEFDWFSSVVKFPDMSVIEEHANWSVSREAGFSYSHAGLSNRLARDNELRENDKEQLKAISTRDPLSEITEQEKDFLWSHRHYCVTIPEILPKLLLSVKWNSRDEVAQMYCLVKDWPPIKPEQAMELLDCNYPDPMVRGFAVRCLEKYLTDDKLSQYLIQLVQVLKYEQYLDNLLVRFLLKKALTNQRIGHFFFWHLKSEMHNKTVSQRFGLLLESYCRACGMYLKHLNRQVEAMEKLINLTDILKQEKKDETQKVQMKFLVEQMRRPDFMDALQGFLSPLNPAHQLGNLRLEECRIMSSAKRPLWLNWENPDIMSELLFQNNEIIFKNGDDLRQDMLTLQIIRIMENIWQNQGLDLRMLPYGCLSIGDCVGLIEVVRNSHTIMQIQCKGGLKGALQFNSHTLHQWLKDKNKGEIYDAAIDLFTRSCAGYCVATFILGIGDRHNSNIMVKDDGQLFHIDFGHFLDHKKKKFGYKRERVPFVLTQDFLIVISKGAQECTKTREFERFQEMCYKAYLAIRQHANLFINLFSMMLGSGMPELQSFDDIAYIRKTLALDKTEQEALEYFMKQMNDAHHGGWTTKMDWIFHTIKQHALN
T1 sequence (P27986 whole entry partner, species assumed): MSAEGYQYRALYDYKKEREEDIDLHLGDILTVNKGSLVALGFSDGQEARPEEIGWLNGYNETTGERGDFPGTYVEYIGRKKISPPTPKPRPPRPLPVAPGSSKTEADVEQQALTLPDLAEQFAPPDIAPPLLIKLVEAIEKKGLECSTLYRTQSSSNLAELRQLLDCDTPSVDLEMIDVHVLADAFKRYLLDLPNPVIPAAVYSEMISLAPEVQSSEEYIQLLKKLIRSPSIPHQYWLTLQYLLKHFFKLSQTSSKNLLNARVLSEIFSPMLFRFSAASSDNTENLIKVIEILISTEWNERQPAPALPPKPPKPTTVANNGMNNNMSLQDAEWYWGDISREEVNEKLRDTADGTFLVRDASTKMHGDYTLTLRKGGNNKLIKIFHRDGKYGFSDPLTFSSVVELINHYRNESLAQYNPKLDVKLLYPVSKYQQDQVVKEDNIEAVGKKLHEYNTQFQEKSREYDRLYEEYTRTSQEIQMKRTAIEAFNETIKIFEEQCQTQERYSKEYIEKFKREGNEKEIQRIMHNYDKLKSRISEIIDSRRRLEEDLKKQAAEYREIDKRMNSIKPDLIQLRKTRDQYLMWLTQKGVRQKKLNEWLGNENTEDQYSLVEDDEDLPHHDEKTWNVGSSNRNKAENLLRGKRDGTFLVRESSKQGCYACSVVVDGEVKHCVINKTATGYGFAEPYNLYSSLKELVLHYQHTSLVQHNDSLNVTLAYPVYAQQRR

For orientation: IC50 means the concentration needed to halve the response being measured. `CC(=O)Nc1cn2nc(-c3ccnc(F)c3)ccc2n1` [Example 3, N-(6-(2-Fluoropyridin-4-yl)imidazo[1,2-b]pyridazin-2-yl)acetamide]: the IC50 on PI3Kα was determined as 782 nM.

As to `CC(=O)Nc1cn2nc(-c3cccc(N)c3)ccc2n1` [Example 5, N-(6-(3-Aminophenyl)imidazo[1,2-b]pyridazin-2-yl)acetamide], the IC50 at PI3Kα stood at 982 nM.

Regarding `CC(=O)Nc1cn2nc(-c3cccc(NS(=O)(=O)c4cccc5cnccc45)c3)ccc2n1` [Example 6, N-(6-(3-(Isoquinoline-5-sulfonamido)phenyl)imidazo[1,2-b]pyridazin-2-yl)acetamide], the IC50 on PI3Kα was found to be 96 nM.

On to `CC(=O)Nc1cn2cc(-c3cncc(N)c3)ccc2n1` [Example 14, N-(6-(5-Aminopyridin-3-yl)H-imidazo[1,2-a]pyridin-2-yl)acetamide], for which the IC50 on PI3Kα amounted to 214 nM.

With `CC(=O)Nc1cn2cc(-c3cncc(NCCC(C)(C)C)c3)ccc2n1` [Example 18, N-(6-(5-(3,3-Dimethylbutylamino)pyridin-3-yl)H-imidazo[1,2-a]pyridin-2-yl)acetamide], at PI3Kα, the IC50 came out at 211 nM.

`COc1cc(-c2ccc3nc(NC(C)=O)cn3n2)cnc1OC` [Example 20, N-(6-(5,6-Dimethoxypyridin-3-yl)imidazo[1,2-b]pyridazin-2-yl)acetamide]: the IC50 worked out at 14 nM at PI3Kα and 115 nM in test [1].

Turning to `CC(=O)Nc1nc2ccc(-c3cnc(Cl)c(NS(C)(=O)=O)c3)nn2c1I` [Example 21, N-(6-(6-Chloro-5-(methylsulfonamido)pyridin-3-yl)-3-iodoimidazo[1,2-b]pyridazin-2-yl)acetamide], the IC50 at PI3Kα amounted to 33 nM; in test [1], 2180 nM.

`CC(=O)Nc1nc2ccc(-c3cnc(Cl)c(NS(C)(=O)=O)c3)nn2c1-c1cccc(F)c1` [Example 22, N-(6-(6-Chloro-5-(methylsulfonamido)pyridin-3-yl)-3-(3-fluorophenyl)imidazo[1,2-b]pyridazin-2-yl)acetamide]: the IC50 on PI3Kα came out at 15 nM; in test [1], 3200 nM.

On to `CS(=O)(=O)Nc1cc(-c2ccc3nc(N)c(-c4cccc(F)c4)n3n2)cnc1Cl` [Example 23, N-(5-(2-Amino-3-(3-fluorophenyl)imidazo[1,2-b]pyridazin-6-yl)-2-chloropyridin-3-yl)methanesulfonamide], for which the concentration for half-maximal inhibition (IC50) is 102 nM at PI3Kα and 55 nM in test [1].

Turning to `CC(=O)Nc1nc2ccc(-c3cnc(Cl)c(NS(C)(=O)=O)c3)nn2c1-c1ccc(F)c(C(=O)N2CCOCC2)c1` [Example 24, N-(6-(6-chloro-5-(methylsulfonamido)pyridin-3-yl)-3-(4-fluoro-3-(morpholine-4-carbonyl)phenyl)imidazo[1,2-b]pyridazin-2-yl)acetamide], the IC50 is 93 nM on PI3Kα and ≥ 25000 nM in test [1].

As for `CS(=O)(=O)Nc1cc(-c2ccc3nc(N)c(-c4ccc(F)c(C(=O)O)c4)n3n2)cnc1Cl` [Example 25, 5-(2-Amino-6-(6-chloro-5-(methylsulfonamido)pyridin-3-yl)imidazo[1,2-b]pyridazin-3-yl)-2-fluorobenzoic acid], the IC50 at PI3Kα is 1170 nM; in test [1], ≥ 25000 nM.

As for `Nc1cn2cc(-c3cnc(Cl)c(NS(=O)(=O)c4ccc(F)cc4)c3)ccc2n1` [Example 29, N-(5-(2-Aminoimidazo[1,2-a]pyridin-6-yl)-2-chloropyridin-3-yl)-4-fluorobenzenesulfonamide], the IC50 on PI3Kα is 64 nM.

Consider `CC(=O)Nc1nc2ccc(-c3cnc(Cl)c(NS(=O)(=O)c4cccc(OC(F)F)c4)c3)nn2c1-c1ccncc1` [Example 44, N-(6-(6-Chloro-5-(3-(difluoromethoxy)phenylsulfonamido)pyridin-3-yl)-3-(pyridin-4-yl)imidazo[1,2-b]pyridazin-2-yl)acetamide], for which, in test [1], the midpoint of inhibition, the IC50, lay at 7480 nM.

`Nc1nc2ccc(-c3cnc(Cl)c(NS(=O)(=O)c4cccc(OC(F)F)c4)c3)nn2c1-c1ccncc1` [Example 45, N-(5-(2-Amino-3-(pyridin-4-yl)imidazo[1,2-b]pyridazin-6-yl)-2-chloropyridin-3-yl)-3-(difluoromethoxy)benzenesulfonamide] registered an IC50 in test [1] of 27 nM.

With `CC(=O)Nc1nc2ccc(-c3cnc(Cl)c(NS(=O)(=O)c4cccc(OC(F)F)c4)c3)nn2c1-c1ccnc(C)c1` [Example 46, N-(6-(6-Chloro-5-(3-(difluoromethoxy)phenylsulfonamido)pyridin-3-yl)-3-(2-methylpyridin-4-yl)imidazo[1,2-b]pyridazin-2-yl)acetamide], in test [1], the midpoint of inhibition, the IC50, lay at 5790 nM.

As for `Cc1cc(-c2c(N)nc3ccc(-c4cnc(Cl)c(NS(=O)(=O)c5cccc(OC(F)F)c5)c4)nn23)ccn1` [Example 47, N-(5-(2-Amino-3-(2-methylpyridin-4-yl)imidazo[1,2-b]pyridazin-6-yl)-2-chloropyridin-3-yl)-3-(difluoromethoxy)benzenesulfonamide], the IC50 in test [1] was 14 nM.

In turn, `CC(=O)Nc1nc2ccc(-c3cnc(Cl)c(NS(=O)(=O)c4ccc(F)cc4)c3)nn2c1-c1ccncc1` [Example 48, N-(6-(6-Chloro-5-(4-fluorophenylsulfonamido)pyridin-3-yl)-3-(pyridin-4-yl)imidazo[1,2-b]pyridazin-2-yl)acetamide] gave an IC50 in test [1] of 18 nM.

As to `CC(=O)Nc1nc2ccc(-c3cnc(Cl)c(NS(=O)(=O)c4cccc(OC(F)F)c4)c3)nn2c1-c1cccnc1` [Example 49, N-(6-(6-Chloro-5-(3-(difluoromethoxy)phenylsulfonamido)pyridin-3-yl)-3-(pyridin-3-yl)imidazo[1,2-b]pyridazin-2-yl)acetamide], the IC50 in test [1] was found to be 3900 nM.

Turning to `Nc1nc2ccc(-c3cnc(Cl)c(NS(=O)(=O)c4cccc(OC(F)F)c4)c3)nn2c1-c1cccnc1` [Example 50, N-(5-(2-Amino-3-(pyridin-3-yl)imidazo[1,2-b]pyridazin-6-yl)-2-chloropyridin-3-yl)-3-(difluoromethoxy)benzenesulfonamide], inhibition in test [1] was half-maximal at 118 nM (IC50).

Turning to `Nc1nc2ccc(-c3cnc(Cl)c(NS(=O)(=O)c4cccc(OC(F)F)c4)c3)nn2c1C1=CCNCC1` [Example 51, N-(5-(2-Amino-3-(1,2,3,6-tetrahydropyridin-4-yl)imidazo[1,2-b]pyridazin-6-yl)-2-chloropyridin-3-yl)-3-(difluoromethoxy)benzenesulfonamide], in test [1], the IC50 came to 439 nM.

Turning to `CC(=O)Nc1cn2cc(-c3ccnc(Cl)n3)ccc2n1` [Example 53, N-(6-(2-Chloropyrimidin-4-yl)H-imidazo[1,2-a]pyridin-2-yl)acetamide], the IC50 on PI3Kα turned out to be 1860 nM.
